Drawing on ChEMBL document CHEMBL1145498, “A systematic interaction map of validated kinase inhibitors with Ser/Thr kinases” (Proc Natl Acad Sci U S A, 2007), this text covers ΔTm for nine compounds.

Test [1] addresses Dual specificity protein kinase CLK2 (Homo sapiens) (UniProt P49760).
In test [2] the target is Cyclin-dependent kinase-like 1 (Homo sapiens) (UniProt Q00532).
The target in test [3] is Casein kinase I isoform gamma-1 (Homo sapiens) (UniProt Q9HCP0).
In test [4] the target is Calcium/calmodulin-dependent protein kinase type II subunit alpha (Homo sapiens) (UniProt Q9UQM7).
The target in test [5] is Calcium/calmodulin-dependent protein kinase type II subunit delta (Homo sapiens) (UniProt Q13557).
The target in test [6] is Serine/threonine-protein kinase Nek6 (Homo sapiens) (UniProt Q9HC98).
The target of test [7] is Serine/threonine-protein kinase OSR1 (Homo sapiens) (UniProt O95747).
The target of test [8] is T1, Serine/threonine-protein kinase 17A (Homo sapiens) (UniProt Q9UEE5).
T1 sequence (whole entry): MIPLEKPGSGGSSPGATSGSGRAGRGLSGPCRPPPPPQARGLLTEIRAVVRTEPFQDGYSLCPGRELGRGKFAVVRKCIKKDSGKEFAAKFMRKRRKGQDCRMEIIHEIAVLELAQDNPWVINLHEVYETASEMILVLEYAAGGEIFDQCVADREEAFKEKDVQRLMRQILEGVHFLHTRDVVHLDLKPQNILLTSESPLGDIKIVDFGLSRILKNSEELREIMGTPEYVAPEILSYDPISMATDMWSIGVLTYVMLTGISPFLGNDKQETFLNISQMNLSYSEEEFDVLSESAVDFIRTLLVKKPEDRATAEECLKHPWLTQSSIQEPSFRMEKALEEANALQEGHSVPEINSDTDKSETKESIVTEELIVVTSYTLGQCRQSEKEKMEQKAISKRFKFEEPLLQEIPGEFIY

The target of test [9] is Calcium/calmodulin-dependent protein kinase kinase 2 (Homo sapiens, UniProt Q96RR4).
In test [10] the target is Casein kinase I isoform gamma-3 (Homo sapiens) (UniProt Q9Y6M4).
In test [11] the target is T2, Serine/threonine-protein kinase PLK4 (Homo sapiens) (UniProt O00444).
T2 sequence (whole entry): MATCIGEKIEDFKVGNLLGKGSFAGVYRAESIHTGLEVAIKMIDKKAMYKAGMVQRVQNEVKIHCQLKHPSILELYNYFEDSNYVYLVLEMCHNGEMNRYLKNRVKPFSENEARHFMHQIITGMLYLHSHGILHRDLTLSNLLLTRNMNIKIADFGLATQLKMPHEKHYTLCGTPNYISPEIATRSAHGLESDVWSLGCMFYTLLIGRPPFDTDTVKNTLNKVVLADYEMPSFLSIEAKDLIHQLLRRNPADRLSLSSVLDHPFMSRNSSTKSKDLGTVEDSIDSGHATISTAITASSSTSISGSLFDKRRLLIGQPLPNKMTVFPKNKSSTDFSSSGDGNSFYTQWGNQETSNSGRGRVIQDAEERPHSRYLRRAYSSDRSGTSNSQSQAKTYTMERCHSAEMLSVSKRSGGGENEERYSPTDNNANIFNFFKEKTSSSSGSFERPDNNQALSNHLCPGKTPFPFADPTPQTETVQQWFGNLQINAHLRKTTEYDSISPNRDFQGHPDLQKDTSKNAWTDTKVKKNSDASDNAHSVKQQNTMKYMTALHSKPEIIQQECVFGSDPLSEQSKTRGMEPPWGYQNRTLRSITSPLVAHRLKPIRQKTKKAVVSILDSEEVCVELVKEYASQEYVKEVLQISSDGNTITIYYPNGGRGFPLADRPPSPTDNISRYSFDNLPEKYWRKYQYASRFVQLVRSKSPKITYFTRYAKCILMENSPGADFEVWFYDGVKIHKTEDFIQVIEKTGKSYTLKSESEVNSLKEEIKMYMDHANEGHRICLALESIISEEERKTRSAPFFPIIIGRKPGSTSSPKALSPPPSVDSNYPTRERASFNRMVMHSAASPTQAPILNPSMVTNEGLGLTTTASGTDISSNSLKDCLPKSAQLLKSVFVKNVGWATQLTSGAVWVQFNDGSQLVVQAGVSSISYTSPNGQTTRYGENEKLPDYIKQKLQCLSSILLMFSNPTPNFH

For test [12], the target named is Serine/threonine-protein kinase 16 (Homo sapiens) (UniProt O75716).
The target of test [13] is T3, 3-phosphoinositide-dependent protein kinase 1 (Homo sapiens) (UniProt O15530).
T3 sequence (whole entry): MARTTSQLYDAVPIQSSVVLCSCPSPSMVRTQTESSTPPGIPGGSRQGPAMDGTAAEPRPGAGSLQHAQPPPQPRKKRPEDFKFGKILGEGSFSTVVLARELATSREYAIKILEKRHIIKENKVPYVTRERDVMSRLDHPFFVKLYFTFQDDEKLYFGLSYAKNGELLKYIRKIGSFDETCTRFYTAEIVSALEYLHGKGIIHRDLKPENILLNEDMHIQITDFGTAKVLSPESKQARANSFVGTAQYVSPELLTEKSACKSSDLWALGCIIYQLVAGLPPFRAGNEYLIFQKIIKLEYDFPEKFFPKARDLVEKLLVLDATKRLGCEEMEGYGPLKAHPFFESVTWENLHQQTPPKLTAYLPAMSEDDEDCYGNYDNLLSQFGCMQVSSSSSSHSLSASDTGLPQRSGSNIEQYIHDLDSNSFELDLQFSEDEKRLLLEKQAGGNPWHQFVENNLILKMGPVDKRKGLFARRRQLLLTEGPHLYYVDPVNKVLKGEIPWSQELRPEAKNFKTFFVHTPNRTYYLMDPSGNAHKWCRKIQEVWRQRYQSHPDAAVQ

Test [14] concerns the target Dual specificity protein kinase CLK3 (Homo sapiens) (UniProt P49761).
Test [15] has as its target Dual specificity protein kinase CLK1 (Homo sapiens) (UniProt P49759).

Chain of Calcium/calmodulin-dependent protein kinase kinase 2 (Q96RR4 2-588 limits assumed): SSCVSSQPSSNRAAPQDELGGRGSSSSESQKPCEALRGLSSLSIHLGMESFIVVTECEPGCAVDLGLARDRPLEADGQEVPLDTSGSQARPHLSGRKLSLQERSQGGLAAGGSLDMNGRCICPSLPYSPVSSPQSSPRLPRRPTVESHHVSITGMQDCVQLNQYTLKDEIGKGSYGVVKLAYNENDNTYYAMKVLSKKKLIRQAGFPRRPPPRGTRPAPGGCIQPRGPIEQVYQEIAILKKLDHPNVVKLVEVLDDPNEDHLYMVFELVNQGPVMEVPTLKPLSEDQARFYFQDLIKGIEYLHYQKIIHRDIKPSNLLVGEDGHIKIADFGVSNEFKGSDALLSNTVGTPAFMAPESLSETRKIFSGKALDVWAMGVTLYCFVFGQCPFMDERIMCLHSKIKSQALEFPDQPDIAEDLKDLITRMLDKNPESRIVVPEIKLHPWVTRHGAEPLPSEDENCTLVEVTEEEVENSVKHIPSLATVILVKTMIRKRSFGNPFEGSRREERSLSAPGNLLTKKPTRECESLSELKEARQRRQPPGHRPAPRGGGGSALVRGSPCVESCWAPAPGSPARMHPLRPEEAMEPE
Chain of Dual specificity protein kinase CLK2 (Homo sapiens) (P49760 whole entry, looked up): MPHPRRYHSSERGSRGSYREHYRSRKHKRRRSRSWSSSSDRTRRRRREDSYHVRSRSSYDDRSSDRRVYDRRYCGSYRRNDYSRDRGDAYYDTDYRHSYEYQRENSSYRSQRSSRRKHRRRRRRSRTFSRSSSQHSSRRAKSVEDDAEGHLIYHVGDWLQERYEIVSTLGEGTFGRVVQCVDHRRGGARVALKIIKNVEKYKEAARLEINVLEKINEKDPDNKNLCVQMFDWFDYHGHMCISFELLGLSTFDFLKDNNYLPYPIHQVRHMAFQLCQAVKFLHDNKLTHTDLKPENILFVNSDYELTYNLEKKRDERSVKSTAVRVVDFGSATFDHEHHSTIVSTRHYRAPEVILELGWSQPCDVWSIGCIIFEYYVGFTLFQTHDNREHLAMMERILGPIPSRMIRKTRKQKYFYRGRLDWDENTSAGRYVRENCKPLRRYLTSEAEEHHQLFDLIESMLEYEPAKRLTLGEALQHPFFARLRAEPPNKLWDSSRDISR
Chain of Cyclin-dependent kinase-like 1 (Homo sapiens) (Q00532 whole entry, canonical isoform): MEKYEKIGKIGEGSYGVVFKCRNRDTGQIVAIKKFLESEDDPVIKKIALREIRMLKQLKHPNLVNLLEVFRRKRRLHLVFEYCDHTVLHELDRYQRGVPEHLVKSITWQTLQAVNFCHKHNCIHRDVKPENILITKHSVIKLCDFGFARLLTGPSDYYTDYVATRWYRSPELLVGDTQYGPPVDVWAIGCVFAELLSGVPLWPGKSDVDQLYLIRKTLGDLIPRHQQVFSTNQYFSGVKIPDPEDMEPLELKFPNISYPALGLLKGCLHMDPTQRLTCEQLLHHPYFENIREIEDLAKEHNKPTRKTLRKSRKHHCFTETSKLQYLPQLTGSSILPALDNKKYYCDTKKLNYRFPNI
Chain of Dual specificity protein kinase CLK1 (Homo sapiens) (P49759 whole entry, looked up): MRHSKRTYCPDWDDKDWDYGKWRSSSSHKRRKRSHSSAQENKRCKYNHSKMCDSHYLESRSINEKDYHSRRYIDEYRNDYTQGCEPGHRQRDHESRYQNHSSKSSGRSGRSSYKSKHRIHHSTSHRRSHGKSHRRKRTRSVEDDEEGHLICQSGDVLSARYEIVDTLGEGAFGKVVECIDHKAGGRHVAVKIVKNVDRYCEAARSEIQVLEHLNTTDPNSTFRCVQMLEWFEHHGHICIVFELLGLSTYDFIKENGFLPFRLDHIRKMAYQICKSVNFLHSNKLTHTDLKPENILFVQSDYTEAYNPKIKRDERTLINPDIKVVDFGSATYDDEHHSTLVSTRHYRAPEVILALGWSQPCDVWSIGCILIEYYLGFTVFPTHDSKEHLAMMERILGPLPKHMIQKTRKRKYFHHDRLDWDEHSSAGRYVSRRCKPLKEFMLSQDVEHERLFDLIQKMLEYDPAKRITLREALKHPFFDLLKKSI
Chain of Dual specificity protein kinase CLK3 (Homo sapiens) (P49761 whole entry, looked up): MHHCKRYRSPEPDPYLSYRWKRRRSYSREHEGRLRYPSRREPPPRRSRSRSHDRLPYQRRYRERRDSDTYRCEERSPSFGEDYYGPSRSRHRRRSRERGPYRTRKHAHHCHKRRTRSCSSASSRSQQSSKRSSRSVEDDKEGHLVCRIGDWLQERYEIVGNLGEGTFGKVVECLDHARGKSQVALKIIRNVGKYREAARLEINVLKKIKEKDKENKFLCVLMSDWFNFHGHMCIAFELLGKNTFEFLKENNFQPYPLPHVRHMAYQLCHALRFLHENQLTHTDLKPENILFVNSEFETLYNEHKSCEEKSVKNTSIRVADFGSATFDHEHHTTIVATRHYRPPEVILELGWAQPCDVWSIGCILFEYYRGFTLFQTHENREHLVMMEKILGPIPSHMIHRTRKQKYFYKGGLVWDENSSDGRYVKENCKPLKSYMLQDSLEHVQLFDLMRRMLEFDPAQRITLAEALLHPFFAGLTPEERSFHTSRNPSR
Chain of Calcium/calmodulin-dependent protein kinase type II subunit alpha (Homo sapiens) (Q9UQM7 whole entry): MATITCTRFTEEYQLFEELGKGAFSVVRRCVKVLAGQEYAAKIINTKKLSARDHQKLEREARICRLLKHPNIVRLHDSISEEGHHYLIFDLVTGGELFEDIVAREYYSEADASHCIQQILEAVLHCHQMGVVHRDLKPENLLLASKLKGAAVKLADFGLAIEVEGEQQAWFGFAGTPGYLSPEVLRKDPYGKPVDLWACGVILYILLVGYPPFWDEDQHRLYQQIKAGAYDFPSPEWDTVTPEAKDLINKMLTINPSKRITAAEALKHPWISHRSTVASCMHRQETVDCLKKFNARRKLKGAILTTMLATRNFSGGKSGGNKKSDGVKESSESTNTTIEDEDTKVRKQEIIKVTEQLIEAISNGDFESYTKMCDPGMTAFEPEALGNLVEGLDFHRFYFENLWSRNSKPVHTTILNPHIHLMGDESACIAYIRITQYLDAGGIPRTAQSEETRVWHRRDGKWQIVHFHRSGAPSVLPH
Chain of Serine/threonine-protein kinase Nek6 (Homo sapiens) (Q9HC98 whole entry): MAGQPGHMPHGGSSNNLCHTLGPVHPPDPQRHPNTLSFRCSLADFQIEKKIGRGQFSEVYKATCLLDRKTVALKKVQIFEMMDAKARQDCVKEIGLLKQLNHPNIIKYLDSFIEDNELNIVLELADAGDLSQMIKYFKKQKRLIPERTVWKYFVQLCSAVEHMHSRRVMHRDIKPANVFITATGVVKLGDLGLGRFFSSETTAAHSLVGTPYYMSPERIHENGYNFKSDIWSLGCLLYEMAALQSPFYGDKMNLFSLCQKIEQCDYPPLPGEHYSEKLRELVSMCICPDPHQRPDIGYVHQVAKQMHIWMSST
Chain of Serine/threonine-protein kinase OSR1 (Homo sapiens) (O95747 2-527 limits assumed): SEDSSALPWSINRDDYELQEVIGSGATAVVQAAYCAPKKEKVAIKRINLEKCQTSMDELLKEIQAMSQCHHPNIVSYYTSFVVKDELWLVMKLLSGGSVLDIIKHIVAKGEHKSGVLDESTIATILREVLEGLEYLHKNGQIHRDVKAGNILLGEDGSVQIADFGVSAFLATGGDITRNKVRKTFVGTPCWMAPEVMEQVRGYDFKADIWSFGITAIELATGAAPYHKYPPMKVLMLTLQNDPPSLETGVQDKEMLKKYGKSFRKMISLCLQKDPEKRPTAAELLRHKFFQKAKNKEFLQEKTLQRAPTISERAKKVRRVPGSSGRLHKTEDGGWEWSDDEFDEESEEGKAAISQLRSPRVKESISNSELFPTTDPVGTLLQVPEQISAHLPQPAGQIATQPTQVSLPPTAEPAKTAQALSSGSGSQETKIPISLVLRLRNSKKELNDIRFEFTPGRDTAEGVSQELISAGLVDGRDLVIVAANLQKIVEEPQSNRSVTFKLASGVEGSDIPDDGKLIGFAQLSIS
Chain of Casein kinase I isoform gamma-3 (Homo sapiens) (Q9Y6M4 whole entry, looked up, canonical isoform): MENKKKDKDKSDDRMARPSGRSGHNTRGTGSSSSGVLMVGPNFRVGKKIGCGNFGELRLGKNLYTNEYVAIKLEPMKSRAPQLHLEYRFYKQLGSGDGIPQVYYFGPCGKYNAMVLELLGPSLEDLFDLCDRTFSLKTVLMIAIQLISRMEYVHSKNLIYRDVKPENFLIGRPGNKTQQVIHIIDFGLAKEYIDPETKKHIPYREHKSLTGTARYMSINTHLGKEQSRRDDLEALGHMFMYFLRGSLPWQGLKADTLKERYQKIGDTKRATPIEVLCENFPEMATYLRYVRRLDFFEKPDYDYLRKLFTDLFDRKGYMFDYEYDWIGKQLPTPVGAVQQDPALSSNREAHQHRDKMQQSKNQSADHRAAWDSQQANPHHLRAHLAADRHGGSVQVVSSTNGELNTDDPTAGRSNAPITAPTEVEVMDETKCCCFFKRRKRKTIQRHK
Chain of Serine/threonine-protein kinase 16 (Homo sapiens) (O75716 whole entry): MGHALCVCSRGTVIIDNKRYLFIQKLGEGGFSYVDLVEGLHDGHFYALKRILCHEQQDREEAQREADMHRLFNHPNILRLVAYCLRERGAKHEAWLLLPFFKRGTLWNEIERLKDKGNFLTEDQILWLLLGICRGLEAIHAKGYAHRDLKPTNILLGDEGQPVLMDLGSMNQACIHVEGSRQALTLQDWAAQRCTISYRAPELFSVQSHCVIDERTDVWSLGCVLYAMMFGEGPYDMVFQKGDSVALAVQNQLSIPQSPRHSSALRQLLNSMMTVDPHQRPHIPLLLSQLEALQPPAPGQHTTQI
Chain of Casein kinase I isoform gamma-1 (Homo sapiens) (Q9HCP0 whole entry, looked up, canonical isoform): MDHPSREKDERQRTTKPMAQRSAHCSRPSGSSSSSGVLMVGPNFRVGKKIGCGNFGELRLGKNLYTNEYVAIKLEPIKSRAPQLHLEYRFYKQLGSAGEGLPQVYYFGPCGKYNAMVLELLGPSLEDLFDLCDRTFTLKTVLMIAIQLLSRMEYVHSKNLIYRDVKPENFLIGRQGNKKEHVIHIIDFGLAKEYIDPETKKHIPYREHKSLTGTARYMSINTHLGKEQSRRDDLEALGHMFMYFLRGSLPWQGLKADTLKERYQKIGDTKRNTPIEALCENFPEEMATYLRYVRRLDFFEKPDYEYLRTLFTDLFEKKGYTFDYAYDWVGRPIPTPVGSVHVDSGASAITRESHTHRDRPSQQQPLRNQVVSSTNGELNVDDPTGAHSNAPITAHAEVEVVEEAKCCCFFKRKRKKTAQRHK

As to `Cc1nc(N)sc1-c1ccnc(Nc2cccc([N+](=O)[O-])c2)n1`, the ΔTm (as a rule, the change in melting temperature against a reference sample) is 7.9 °C in test [1]; 3.5 °C in [2]; 3.9 °C in test [3]; 1.4 °C in test [4]; -0.4 °C in [5]; 1.4 °C in [6]. For the same compound, the ΔTm was 1.2 °C in [7]; 1.9 °C in test [8]; 3.6 °C in test [9]; 1.3 °C in test [10]; 2.3 °C in test [11]; 2.9 °C in test [12]. Moreover, the ΔTm was 1.9 °C in [13], 4 °C in [14] and 7 °C in test [15].
`CCCNC(=O)Nc1ccc(Oc2ncnc3cc(OC)c(OC)cc23)cc1Cl` [KRN-633]: the ΔTm in test [1] was -0.2 °C; in test [2] it was 0.8 °C; in [3] it was 0.8 °C; in test [4], 0.8 °C; in [5], 0.3 °C; in [6] it was 0.8 °C. The ΔTm in [7] is 0.3 °C; in [8], 2.7 °C; in [9], 0.7 °C; in test [10] it was -3.7 °C; in [11], 1 °C; in test [12], 0.2 °C. Further, the results for the ΔTm in [13], in test [14] and in test [15] were -0.1 °C, 0.1 °C and -1.7 °C, respectively.
`O=C(Nc1cccc(Nc2nccc(Nc3cccc(C(F)(F)F)c3)n2)c1)C1CC1` [ANILINOPYRIMIDINE1]: the ΔTm was found to be 0.6 °C in [1]; 1.6 °C in [2]; 0.7 °C in [3]; 0.3 °C in test [4]; 0.6 °C in test [5]; 1.7 °C in test [6]. Further, the shift in melting temperature (ΔTm) in test [7] was 1.2 °C; in [8], 1.5 °C; in test [9], 2 °C; in test [10], 2.2 °C; in test [11], 2.2 °C; in test [12], 2.3 °C. The ΔTm in test [13] was determined as 1.6 °C; in test [14] it was 0.6 °C; in test [15], 1.9 °C.
`COc1ccc(Cl)cc1NC(=O)Nc1cc(C)nc2ccccc12`: the ΔTm is 0.6 °C in [1]; 1.6 °C in [2]; 1.4 °C in test [3]; -0.5 °C in test [4]; 0.9 °C in test [5]; 0 °C in test [6]. The ΔTm in [7] is 0.6 °C; in [8], -0.1 °C; in [9], 0.4 °C; in test [10], 0.9 °C; in test [11], 3.4 °C; in test [12] it was 0.4 °C. Further, the ΔTm is 3 °C in test [13], -0.1 °C in test [14] and 0.5 °C in test [15].
As to `CN1CCc2[nH]c(=S)c(C#N)c(-c3cccs3)c2C1`, the ΔTm in test [1] is 6.2 °C; in test [2] it was 11.1 °C; in test [3] it was 0.8 °C; in test [4], 0.8 °C; in [5], -0.8 °C; in [6], 0 °C. The ΔTm in [7] stood at 0.8 °C; in test [8] it was 0.9 °C; in [9] it was 3.8 °C; in test [10], 0.2 °C; in test [11], 10.7 °C; in test [12] it was 0.5 °C. Besides, the ΔTm in test [13] was 1.5 °C; in test [14] it was -0.2 °C; in test [15], 2.4 °C.
On to `O=C(Nc1cccc(Nc2cc(Nc3cccc(C(F)(F)F)c3)ncn2)c1)C1CC1`, for which the ΔTm is 0.9 °C in test [1]; 1.5 °C in test [2]; 1 °C in [3]; 1.8 °C in test [4]; -2 °C in test [5]; -0.4 °C in test [6]. Further, the ΔTm was found to be 0.9 °C in test [7]; 1.5 °C in test [8]; 1.7 °C in [9]; 0.2 °C in test [10]; 2 °C in test [11]; 3.4 °C in test [12]. Besides, the figures for the ΔTm in test [13], in test [14] and in [15] were 1.7 °C, 1.5 °C and 1.9 °C, respectively.
As for `CC(C)[C@H](CO)Nc1nc(Nc2cc(N)cc(Cl)c2)c2ncn(C(C)C)c2n1` [AMINOPURVALANOL], the ΔTm in test [1] was found to be 4.5 °C; in test [2] it was 2.7 °C; in test [3], 2 °C; in test [4] it was 0.5 °C; in test [5], 0.3 °C; in [6], 0 °C. For the same compound, the ΔTm in [7] was 2.6 °C; in test [8] it was 1.6 °C; in test [9] it was 3.3 °C; in [10], 1.1 °C; in test [11] it was 6.2 °C; in [12] it was 0.2 °C. Also, the ΔTm in test [13] worked out at 1.4 °C; in [14] it was 6.1 °C; in test [15], 5.5 °C.
With `CN(c1cccnc1)c1cc2c(Nc3ccc(F)c(Cl)c3)c(C#N)cnc2cn1`, the ΔTm in test [1] came out at 4.3 °C; in [2] it was 5.4 °C; in test [3], 1.4 °C; in [4], 3.4 °C; in test [5], 2.7 °C; in [6], 1.5 °C. Besides, the ΔTm in test [7] was determined as 0.3 °C; in [8], 4.7 °C; in [9], 1.9 °C; in test [10], 3.7 °C; in test [11] it was 8.2 °C; in test [12] it was 8.7 °C. Besides, the results for the ΔTm in test [13], in test [14] and in test [15] were 1.2 °C, 1.2 °C and 4.9 °C, respectively.
In the case of `CC(C)c1nn(-c2c(Cl)cccc2Cl)c2nc(Cc3ccc(OCCO)cc3)[nH]c(=O)c12`, the ΔTm worked out at 1.3 °C in test [1]; 0.2 °C in test [2]; 0.1 °C in test [3]; 0.4 °C in test [4]; 0.6 °C in test [5]; 2 °C in test [6]. Further, the ΔTm was 2.9 °C in [7]; 0.1 °C in test [8]; 1.7 °C in [9]; 1.3 °C in [10]; 2.9 °C in test [11]; 1.4 °C in test [12]. Further, the ΔTm is 0 °C in test [13], 0.6 °C in [14] and 3.6 °C in test [15].
